Species on record: Rattus norvegicus
Experiment: DrugMatrix - Regimen: Daily Repeat
Assay type: toxicity, organism-based, Sprague-Dawley
Set-up: regimen Daily Repeat, gender Male, age 6-8 weeks
Details: in vivo, po, 0 mg/kg, route oral GAVAGE, dose level Control, vehicle 100 % WATER; for BASOPHIL / EOSINOPHIL / ERYTHROCYTE COUNT / HEMATOCRIT / HEMOGLOBIN / LEUKOCYTE COUNT / LYMPHOCYTE / MEAN CORPUSCULAR HEMOGLOBIN / MEAN CORPUSCULAR HEMOGLOBIN CONCENTRATION / MEAN CORPUSCULAR VOLUME / MONOCYTE / NEUTROPHIL / PLATELET COUNT: tissue Blood; for ALANINE AMINOTRANSFERASE / ALBUMIN / ALKALINE PHOSPHATASE / ASPARTATE AMINOTRANSFERASE / BLOOD UREA NITROGEN / CARBON DIOXIDE / CHLORIDE / CHOLESTEROL / CREATINE PHOSPHOKINASE / CREATININE / GLUCOSE / LACTATE DEHYDROGENASE / LIPASE / PHOSPHORUS / POTASSIUM / SODIUM / TOTAL BILIRUBIN / TOTAL PROTEIN / URIC ACID: tissue Plasma

With `CC(C)=O` [ACETONE] the BASOPHIL (96 h, time 4 day) was 0.47%, the EOSINOPHIL (96 h, time 4 day) was 0.58% and the “ERYTHROCYTE COUNT” value (96 h, time 4 day) was 6.84 x10E6/uL. For the same compound, the HEMATOCRIT (96 h, time 4 day) was 44.27%, the HEMOGLOBIN (96 h, time 4 day) was 14.08 G/DL and the “LEUKOCYTE COUNT” value (96 h, time 4 day) was 13.39 x10E3/uL. For the same compound, the LYMPHOCYTE (96 h, time 4 day) was 83.57%, the “MEAN CORPUSCULAR HEMOGLOBIN” value (96 h, time 4 day) was 20.57 pg and the “MEAN CORPUSCULAR HEMOGLOBIN CONCENTRATION” value (96 h, time 4 day) was 31.77 G/DL. The “MEAN CORPUSCULAR VOLUME” value (96 h, time 4 day) was 64.68 fL, the MONOCYTE (96 h, time 4 day) was 1.92% and the NEUTROPHIL (96 h, time 4 day) was 12.95%. For the same compound, the “PLATELET COUNT” value (96 h, time 4 day) was 1533.67 x10E3/uL, the “ALANINE AMINOTRANSFERASE” value (96 h, time 4 day) was 28.17 u/L and the ALBUMIN (96 h, time 4 day) was 3.82 G/DL. The “ALKALINE PHOSPHATASE” value (96 h, time 4 day) was 354.33 u/L, the “ASPARTATE AMINOTRANSFERASE” value (96 h, time 4 day) was 73.83 u/L and the “BLOOD UREA NITROGEN” value (96 h, time 4 day) was 16 mg/dL. For the same compound, the “CARBON DIOXIDE” value (96 h, time 4 day) was 27.17 mmol/L, the CHLORIDE (96 h, time 4 day) was 104.83 MEQ/L and the CHOLESTEROL (96 h, time 4 day) was 83.33 mg/dL. For the same compound, the “CREATINE PHOSPHOKINASE” value (96 h, time 4 day) was 288 u/L, the CREATININE (96 h, time 4 day) was 0.33 mg/dL and the GLUCOSE (96 h, time 4 day) was 181.33 mg/dL. For the same compound, the “LACTATE DEHYDROGENASE” value (96 h, time 4 day) was 173.17 u/L, the LIPASE (96 h, time 4 day) was 17.67 u/L and the PHOSPHORUS (96 h, time 4 day) was 11.5 mg/dL. For the same compound, the POTASSIUM (96 h, time 4 day) was 6.8 MEQ/L, the SODIUM (96 h, time 4 day) was 147 MEQ/L and the “TOTAL BILIRUBIN” value (96 h, time 4 day) was 0.35 mg/dL. The “TOTAL PROTEIN” value (96 h, time 4 day) was 6.35 G/DL, the “URIC ACID” value (96 h, time 4 day) was 1.55 mg/dL and the BASOPHIL ([…], time 6 day) was 0.33%. The EOSINOPHIL ([…], time 6 day) was 0.85%, the “ERYTHROCYTE COUNT” value ([…], time 6 day) was 6.98 x10E6/uL and the HEMATOCRIT ([…], time 6 day) was 38.58%. The HEMOGLOBIN ([…], time 6 day) was 14.25 G/DL, the “LEUKOCYTE COUNT” value ([…], time 6 day) was 11.01 x10E3/uL and the LYMPHOCYTE ([…], time 6 day) was 85.07%. For the same compound, the “MEAN CORPUSCULAR HEMOGLOBIN” value ([…], time 6 day) was 20.47 pg, the “MEAN CORPUSCULAR HEMOGLOBIN CONCENTRATION” value ([…], time 6 day) was 31.45 G/DL and the “MEAN CORPUSCULAR VOLUME” value ([…], time 6 day) was 64.9 fL. The MONOCYTE ([…], time 6 day) was 1.9%, the NEUTROPHIL ([…], time 6 day) was 11.42% and the “PLATELET COUNT” value ([…], time 6 day) was 1289.67 x10E3/uL. For the same compound, the BASOPHIL ([…], time 14 day) was 0.52%, the EOSINOPHIL ([…], time 14 day) was 0.55% and the “ERYTHROCYTE COUNT” value ([…], time 14 day) was 7.72 x10E6/uL. The HEMATOCRIT ([…], time 14 day) was 51.87%, the HEMOGLOBIN ([…], time 14 day) was 15.32 G/DL and the “LEUKOCYTE COUNT” value ([…], time 14 day) was 16.2 x10E3/uL. For the same compound, the LYMPHOCYTE ([…], time 14 day) was 85.13%, the “MEAN CORPUSCULAR HEMOGLOBIN” value ([…], time 14 day) was 19.85 pg and the “MEAN CORPUSCULAR HEMOGLOBIN CONCENTRATION” value ([…], time 14 day) was 29.52 G/DL. For the same compound, the “MEAN CORPUSCULAR VOLUME” value ([…], time 14 day) was 67.17 fL, the MONOCYTE ([…], time 14 day) was 1.7% and the NEUTROPHIL ([…], time 14 day) was 11.6%. For the same compound, the “PLATELET COUNT” value ([…], time 14 day) was 1104.17 x10E3/uL, the “ALANINE AMINOTRANSFERASE” value ([…], time 6 day) was 28.17 u/L and the ALBUMIN ([…], time 6 day) was 3.78 G/DL. The “ALKALINE PHOSPHATASE” value ([…], time 6 day) was 385.33 u/L, the “ASPARTATE AMINOTRANSFERASE” value ([…], time 6 day) was 78 u/L and the “BLOOD UREA NITROGEN” value ([…], time 6 day) was 16.83 mg/dL. For the same compound, the “CARBON DIOXIDE” value ([…], time 6 day) was 26.67 mmol/L, the CHLORIDE ([…], time 6 day) was 106.83 MEQ/L and the CHOLESTEROL ([…], time 6 day) was 82.67 mg/dL. The “CREATINE PHOSPHOKINASE” value ([…], time 6 day) was 225.5 u/L, the CREATININE ([…], time 6 day) was 0.27 mg/dL and the GLUCOSE ([…], time 6 day) was 179.5 mg/dL. The “LACTATE DEHYDROGENASE” value ([…], time 6 day) was 98.33 u/L, the LIPASE ([…], time 6 day) was 14.67 u/L and the PHOSPHORUS ([…], time 6 day) was 12.28 mg/dL. The POTASSIUM ([…], time 6 day) was 7.03 MEQ/L, the SODIUM ([…], time 6 day) was 150.33 MEQ/L and the “TOTAL BILIRUBIN” value ([…], time 6 day) was 0.38 mg/dL. For the same compound, the “TOTAL PROTEIN” value ([…], time 6 day) was 6.45 G/DL, the “URIC ACID” value ([…], time 6 day) was 1.6 mg/dL and the “ALANINE AMINOTRANSFERASE” value ([…], time 14 day) was 37 u/L. The ALBUMIN ([…], time 14 day) was 4.13 G/DL, the “ALKALINE PHOSPHATASE” value ([…], time 14 day) was 342 u/L and the “ASPARTATE AMINOTRANSFERASE” value ([…], time 14 day) was 71 u/L. For the same compound, the “BLOOD UREA NITROGEN” value ([…], time 14 day) was 16.5 mg/dL, the “CARBON DIOXIDE” value ([…], time 14 day) was 28.17 mmol/L and the CHLORIDE ([…], time 14 day) was 104 MEQ/L. The CHOLESTEROL ([…], time 14 day) was 70.67 mg/dL, the “CREATINE PHOSPHOKINASE” value ([…], time 14 day) was 287.67 u/L and the CREATININE ([…], time 14 day) was 0.38 mg/dL. For the same compound, the GLUCOSE ([…], time 14 day) was 150.17 mg/dL, the “LACTATE DEHYDROGENASE” value ([…], time 14 day) was 81.33 u/L and the LIPASE ([…], time 14 day) was 16 u/L. The PHOSPHORUS ([…], time 14 day) was 11.32 mg/dL, the POTASSIUM ([…], time 14 day) was 6.22 MEQ/L and the SODIUM ([…], time 14 day) was 147.33 MEQ/L. The “TOTAL BILIRUBIN” value ([…], time 14 day) was 0.43 mg/dL, the “TOTAL PROTEIN” value ([…], time 14 day) was 6.55 G/DL and the “URIC ACID” value ([…], time 14 day) was 1.38 mg/dL.

Reference: ChEMBL document CHEMBL3885881, “DrugMatrix”
